Patent publication US20070203159A1, “Purine compounds” (priority 2006, published 2007)
In brackets after ≈: the same amount, converted by molar mass.

Tests used:
[1] = tested on: Mycobacterium tuberculosis H37Rv (ATCC 27294); test: Microplate Alamar Blue Assay (MABA): primary screening and MIC determination; assay type: cell-based; details: Mycobacterium tuberculosis; retest at lower concentrations in the MABA; read-out: MIC
[2] = tested on: M. tuberculosis Erdman (ATCC 35801); test: 90% and 99% effective concentration in M. tuberculosis infected macrophages; assay type: cell-based; details: for EC99 / EC^+99: monolayers of mouse bone marrow macrophages; for EC99: […]% reduction in residual mycobacterial growth after 7 days compared with untreated controls; for EC^+99: reduction in residual mycobacterial growth after 7 days compared with untreated controls

With `COc1ccc(Cn2cnc3c(-c4ccco4)ncnc32)cc1` [Example 33, 6-(2-Furyl)-9-(4-methoxyphenylmethyl)-9H-purine] the melting point was 175 to 176 °C, the MIC [1] was 1.56 µg/mL (≈ 5.09 µM) and the EC90/MIC ([2]; MIC data from Table 1) was >8.01. The EC99 [2] was >12.5 µg/mL and the “EC^+99” value [2] was >12.5 µg/mL.

In the case of `CSc1ccc(Cn2cnc3c(-c4ccco4)ncnc32)cc1` [Example 42, 6-(2-Furyl)-9-(4-methylthiophenylmethyl)-9H-purine], the melting point is reported as 157 to 159 °C and the MIC [1] is reported as 6.25 µg/mL (≈ 19.4 µM).

With `CN(C)c1ccc(Cn2cnc3c(-c4ccco4)ncnc32)cc1` [Example 43, 9-(4-Dimethylaminophenylmethyl)-6-(2-furyl)-9H-purine] the melting point was 158 to 160 °C and the MIC [1] was 12.5 µg/mL (≈ 39.1 µM).

Work on `Clc1nc(-c2ccco2)c2ncn(Cc3ccc(Cl)c(Cl)c3)c2n1` [Example 47, 2-Chloro-9-(3,4-dichlorophenylmethyl)-6-(2-furyl)-9H-purine] yielded a melting point of 191 to 193 °C and an MIC [1] of 6.25 µg/mL (≈ 16.5 µM).

`Clc1cccc(Cn2cnc3c(-c4ccco4)nc(Cl)nc32)c1` [Example 48, 2-Chloro-9-(3-chlorophenylmethyl)-6-(2-furyl)-9H-purine] gave a melting point of 196 to 198 °C and an MIC [1] of 3.13 µg/mL (≈ 9.07 µM).

In the case of `Fc1ccc(Cn2cnc3c(-c4ccco4)nc(Cl)nc32)cc1` [Example 49, 2-Chloro-9-(4-fluorophenylmethyl)-6-(2-furyl)-9H-purine], the melting point is reported as 152 to 155 °C and the MIC [1] is reported as 3.13 µg/mL (≈ 9.52 µM).

In the case of `COc1ccc(Cn2cnc3c(-c4ccco4)nc(Cl)nc32)cc1` [Example 51, 2-Chloro-6-(2-furyl)-9-(4-methoxyphenylmethyl)-9H-purine], the MIC [1] is reported as 0.39 µg/mL (≈ 1.14 µM), the EC99 [2] is reported as 0.67 µg/mL and the “EC^+99” value [2] is reported as 0.02 µg/mL.

In the case of `COc1cccc(Cn2cnc3c(-c4ccco4)nc(Cl)nc32)c1` [Example 52, 2-Chloro-6-(2-furyl)-9-(3-methoxyphenylmethyl)-9H-purine], the melting point is reported as 160 to 161 °C and the MIC [1] is reported as 3.13 µg/mL (≈ 9.19 µM).

`COc1ccc(Cn2cnc3c(-c4ccco4)nc(Cl)nc32)cc1C` [Example 53, 2-Chloro-6-(2-furyl)-9-(4-methoxy-3-methylphenylmethyl)-9H-purine] gave a melting point of 177 to 179 °C and an MIC [1] of 0.78 µg/mL (≈ 2.2 µM).

In the case of `COc1ccc(Cn2cnc3c(-c4ccc(OC)cc4)nc(Cl)nc32)cc1` [Example 54, 2-Chloro-6-(4-methoxyphenyl)-9-(4-methoxyphenylmethyl)-9H-purine], the melting point is reported as 152 to 154 °C and the MIC [1] is reported as 1.56 µg/mL (≈ 4.1 µM).

For `COC(c1ccccc1)n1cnc2c(-c3cccs3)nc(Cl)nc21` (stereo not drawn) [Example 55, 2-Chloro-9-(methoxyphenylmethyl)-6-(2-thienyl)-9H-purine], the melting point was 183 to 185 °C and the MIC [1] was 0.78 µg/mL (≈ 2.19 µM).

`COc1ccc(Cn2cnc3c(-c4ccco4)nc(SC)nc32)cc1` [Example 68, 6-(2-Furyl)-9-(4-methoxyphenylmethyl)-2-methylthio-9H-purine] showed a melting point of 147 to 148 °C and an MIC [1] of 0.78 µg/mL (≈ 2.21 µM).

With `COc1ccc(Cn2ccc3c(-c4ccco4)ncnc32)cc1` [Example 109, 4-(2-Furyl)-7-(4-methoxybenzyl)-7H-pyrrolo[2,3-d]pyrimidine] the melting point was 130 to 131 °C and the MIC [1] was 0.39 µg/mL (≈ 1.28 µM).
